Reference: patent US20240140953A1, “INHIBITORS OF MENIN-MLL INTERACTION” (BIOMEA FUSION, INC., priority 2018, published 2024)
Like-named read-outs stand apart in the source and are kept apart here.

Columns and labels:
MV-4-11 = assay: Long term proliferation assay (Table 3A), MV-4-11; type: cell-based; conditions: Homo sapiens, MV4-11; MV-4-11, Day 4; read-out: MV-4-11 Day 4 IC50
Method: (§1) Example 5b: IC50 determination of compounds of invention in various cell lines (Long Term Proliferation Assay)
(§2) The following 5 cell lines are used or can be used for the long term proliferation assay.
(§3) Compounds of invention are tested in the 5 suspension lines by 14-day long-term proliferation assay.
(§4) The compound is tested in 10-pt dose titration (client will determine the starting concentration and the dilution scheme) and the final DMSO concentration is kept at 0.2%.
(§5) Vehicle and media control are also included. All treatments are done in triplicate.
(§6) 3 plates are used for each cell line and 15 plates are used for the 5 cell lines.
(§7) • 1) On Day 0, in a flat bottom 96-well plate, add 100 μL of cells per well at the densities optimized. • 2) Prepare compounds in DMSO at 500× final concentration. Dilute the compounds with DMSO at the dilution. • 3) Dilute the compounds in media at 3×final concentration. Add 50 μL of compound or DMSO at 3× final concentration to each well. Final volume in each well is 150 μL, and final concentration of DMSO is 0.2%. Also include 3 untreated control wells, by adding 50 μL of media alone. 4) Incubate plates for 96 hours. • 5) Count the cells using the Acumen, with capabilities for 96-well plates. Pipette cells up and down to mix in each well, and add desired volume of cells to a new flat bottom poly-D-lysine 96-well plate. Add Calcein AM at 1 μM final concentration. Let cells sit at RT for 10 mins followed by a quick spin to get cells settled on the bottom of the wells. Incubate the plate for additional 40 mins in the incubator. Take out the plate and read by Acumen. Calculate the cell numbers taken into account the dilution factors. • 6) Split the master plate. To do this take the total viable cell count calculated using step 5). Take the average of the replicates for each dose in order to be used in splitting the cells. • 7) Use a 96 well V-bottom plate to spin down the cells to remove old media and compound to split the cells. Based on the split ratio place the proper amount of media and cells into the V-bottom plate, and spin the plate at 1100 rpm for 5 minutes. • 8) Following the spin remove the media, careful not to disturb the cellpellet. • 9) Re-suspend pellet in 100 μL fresh media, and add to a new 96-well flat bottom plate. • 10) Add fresh compound, in the same manner as Step 3). • 11) Incubate plates for 72 hours. Repeat steps 5)-10) on Day 7. • 12) Incubate plates for 96 hours. Repeat Step 5)-10) on Day 11. • 13) Incubate 72 hours and repeat step 5) to take a final count. • 14) Data Analysis
(§8) To calculate growth for days 4, 7, 11, and 14: • Calculate the split factor for day 4 to 7, day 7 to 11, and day 11-14.

MOLM-13 = assay: Long term proliferation assay (Table 3A), MOLM-13; type: cell-based; conditions: Homo sapiens, 96 h; MOLM-13, Day 4; read-out: MOLM-13 Day 4 IC50
Method: as §1, §2, §3, §4, §5, §6, §7, §8

menin = menin (Homo sapiens (Human), UniProt O00255); assay: Kd (Table 3A); type: binding
HL-60 = assay: Proliferation study, CellTiterGlo, 4 days (Example 102), HL-60; type: cell-based; conditions: HL-60, 4 days treatment; for HL-60 % max: maximal inhibition; for IC50: Homo sapiens, 96 h, CellTiterGlo
Excerpt: (§9) The objective of the study was to evaluate the ability of representative compounds of the present invention, inhibitors of Menin/MLL interaction to inhibit cell proliferation. The proliferation inhibitory effect was investigated in two human MLL-leukemia cells selected on the bases of MLL fusion protein and listed in Table 102. HL-60 cell line was used as negative control.
(§10) ATP is present in all metabolically active cells and is considered as a marker for cell viability and proliferation. The metabolic cell activity was determined using the CellTiter-Glo kit from Promega, an ATP monitoring system based on the production of luminescence by the reaction of ATP with added UltraGlo® recombinant luciferase (Kawano et al., 2016), according to the supplier's experimental recommendations.
(§11) The described assay evaluates the ability of 4 representative compounds to inhibit the cell proliferation in the human MLL-leukemia cells plus a negative control cell line.
(§12) The assay provides potency values (IC50) for each test compound at a single time point Day 4 (T4).
(§13) Seven concentrations of the compounds (2.00E-05-6.67E-06-2.22E-06-7.41E-07-2.47E-07-8.23E-08-2.74E-08M), were assessed in duplicate in an individual test occasion in all the cell lines. MI-503 (Borkin et al., 2015) was used as reference compound and was tested at the same concentrations as the NCEs. 100% of proliferation is represented by the untreated cells (0.2% DMSO). The cell growth was monitored up to 4 days in culture.
(§14) MV4-11, MOLM-13 and HL-60 cells (see Table 2) were maintained in RPMI-1640 medium (Invitrogen, Cat. n. 618700, Batch n. 1965930) supplemented with 10% of Heat Inactivated FBS (Invitrogen, Cat n. 10500, Batch n. 08Q8078K) and 1% Pen-Strep (Invitrogen, Cat. N. 15140, Batch n. 1910859) and cultured at 37° C. in a humidified incubator with 5% CO2. All the cell lines grow in suspension and the cell density was maintained in a range of 2×10^5-1×10^6 viable cells/ml. Cells were pelleted at 130 g×5 min and conditioned medium was used to dilute the cell suspension.
(§15) Test items were dissolved in glass vials at 10 mM in DMSO with purity ≥99.9% (Sigma, D8418, batch n. SHBH4245V) and stored at −20° C. in 1.5 mL Eppendorf tubes.
(§16) Serial dilutions 1 to 3 in DMSO 100% were prepared starting from a 10 mM stock solutions to generate 7 points concentration response curve (CRC).
(§17) For each plate to test, one 0.4 μL copy plate and four 0.3 μL copy plates were then stamped into 96-well plates not treated for cell adhesion (Sarstedt—cat.no. 82.1581.001) by acoustic liquid Handling, Echo, at a concentration which was 500 fold the final assay concentration. Stamped plates were stored at −20° C. The final concentrations for the reference compound, MI-503, and the test items were: 2.00E-05, 6.67E-06, 2.22E-06, 7.41E-07, 2.47E-07, 8.23E-08 and 2.74E-08 M.
(§18) Cells were plated in 96-well flat bottom microtiter plates at cell density of 15,000 cells/ml for HL-60, 1000 cells/ml for MOLM-13 and 10,000 cell/ml for MV4-11. Cells were treated with 0.2% DMSO (Sigma, D8418, batch n. SHBH4245V) or serial dilutions of compounds (0.027 μM-20 μM) in DMSO (0.2% final concentration). Cells were incubated in a 5% CO2 incubator at 37° C. for 4 days. A CellTiterGlo viability assay (Promega) was employed. Luminescence was read by using VictorV (Perkin Elmer) multilabel plate reader using the standard protocol for luminescence in 96 well plate. The experiment was performed in duplicate.
(§19) Data were expressed as % of inhibition compared to the 0.2% DMSO negative control, and was calculated as follows: […]
(§20) CRCs were analysed by GraphPad and IC50 values were calculated by non-linear regression using 4 parameter-logistic equation. IC50 (μM) values were reported in the final data table. The curve fittings were performed leaving free all the parameters. Any constrain were reported in the results table.

MV4-11 (MLL-AF4) = assay: Proliferation study, CellTiterGlo, 4 days (Example 102), MV4-11; type: cell-based, human; conditions: MV4-11, 4 days treatment; for IC50: Homo sapiens, MV4-11, 96 h, CellTiterGlo; for MV4-11 (MLL-AF4) % max: maximal inhibition
Excerpt: as §9, §10, §11, §12, §13, §14, §15, §16, §17, §18, §19, §20

MOLM-13 (MLL-AF9) = assay: Proliferation study, CellTiterGlo, 4 days (Example 102), MOLM-13; type: cell-based, human; conditions: MOLM-13, 4 days treatment; for IC50: Homo sapiens, 96 h, CellTiterGlo; for MOLM-13 (MLL-AF9) % max: maximal inhibition
Excerpt: as §9, §10, §11, §12, §13, §14, §15, §16, §17, §18, §19, §20

[1] = read-out: HL-60 pIC50 (converted)
[2] = read-out: MV4-11 (MLL-AF4) IC50
[3] = read-out: MV4-11 (MLL-AF4) pIC50 (converted)
[4] = read-out: MOLM-13 (MLL-AF9) IC50
[5] = read-out: MOLM-13 (MLL-AF9) pIC50 (converted)

Chain of menin (O00255 whole entry, species assumed): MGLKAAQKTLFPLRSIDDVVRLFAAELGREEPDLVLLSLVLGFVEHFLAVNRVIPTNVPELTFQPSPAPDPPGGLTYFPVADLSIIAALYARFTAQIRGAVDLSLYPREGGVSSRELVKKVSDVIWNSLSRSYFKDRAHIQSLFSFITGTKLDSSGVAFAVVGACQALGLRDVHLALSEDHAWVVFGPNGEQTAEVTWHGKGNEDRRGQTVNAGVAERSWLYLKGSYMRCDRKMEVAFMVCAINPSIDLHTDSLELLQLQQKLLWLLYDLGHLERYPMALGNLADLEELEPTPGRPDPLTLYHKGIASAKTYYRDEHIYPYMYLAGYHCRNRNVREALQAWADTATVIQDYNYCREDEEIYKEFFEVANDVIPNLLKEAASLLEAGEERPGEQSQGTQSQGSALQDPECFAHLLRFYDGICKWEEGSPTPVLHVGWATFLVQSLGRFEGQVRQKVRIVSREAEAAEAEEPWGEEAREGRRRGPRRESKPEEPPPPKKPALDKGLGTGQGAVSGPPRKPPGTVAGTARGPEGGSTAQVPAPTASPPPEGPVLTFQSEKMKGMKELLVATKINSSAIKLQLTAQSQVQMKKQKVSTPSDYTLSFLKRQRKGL

IC50 (MV-4-11) [nM]	IC50 (MOLM-13) [nM]	Kd (menin) [nM]	IC50 (HL-60; read-out: HL-60 IC50) [nM]	IC50 (HL-60; [1]) [nM]	IC50 (MV4-11 (MLL-AF4); [2]) [nM]	IC50 (MV4-11 (MLL-AF4); [3]) [nM]	IC50 (MOLM-13 (MLL-AF9); [4]) [nM]	IC50 (MOLM-13 (MLL-AF9); [5]) [nM]	SMILES	HL-60 % max (HL-60) [%]	MV4-11 (MLL-AF4) % max (MV4-11 (MLL-AF4)) [%]	MOLM-13 (MLL-AF9) % max (MOLM-13 (MLL-AF9)) [%]
220	310	2700 ± 4000	360	363	220	224	310	309	O=C(Cc1cc(-c2cccnc2)n[nH]1)Nc1ccc(-c2cc3c(N4CCOCC4)ncnc3[nH]2)cc1 [Compound 10, N-{4-[4-(morpholin-4-yl)-7H-pyrrolo[2,3-d]pyrimidin-6-yl]phenyl}-2-[3-(pyridin-3-yl)-1H-pyrazol-5-yl]acetamide]	65	100	94
910	1230		2750	2750	910	912	1230	1230	Cc1cn(-c2ncnc3[nH]c(-c4ccc(NC(=O)Cc5cc(-c6cccnc6)n[nH]5)cc4)cc23)cn1 [Compound 13, N-{4-[4-(4-methyl-1H-imidazol-1-yl)-7H-pyrrolo[2,3-d]pyrimidin-6-yl]phenyl}-2-[3-(pyridin-3-yl)-1H-pyrazol-5-yl]acetamide]	112	105	101
